Twelve compounds from ChEMBL document CHEMBL4219152, “Design, synthesis, biological evaluation, homology modeling and docking studies of (E)-3-(benzo[d][1,3]dioxol-5-ylmethylene) pyrrolidin-2-one derivatives as potent anticonvulsant agents” (Bioorg Med Chem Lett, 2018) can be followed below.

Series [1] relates to Mus musculus. The experiment in a line: Anticonvulsant activity in ip dosed Kunming mouse assessed as protection against maximal electroshock-induced seizures. Format: functional.
Series [2] concerns Mus musculus. The series can be described thus: Anticonvulsant activity in ip dosed Kunming mouse assessed as minimum dose required to protect maximal electroshock-induced seizures in mouse by measuring time to peak effect. It is filed as functional. Background: The maximal electroshock test induces tonic seizures with an electrical stimulus.
Series [3] is filed under the species Mus musculus. The series can be described thus: Neurotoxicity in Kunming mouse assessed as motor impairment by measuring reduction in time spent on rotarod after 4 hrs by rotarod test. To be noted: in vivo. Format: toxicity, organism-based. Background: The rotarod test checks motor coordination on a turning rod.
Series [4] deals with Mus musculus. The experiment in a line: Anticonvulsant activity in Kunming mouse assessed as protection against subcutaneously injected metrazol-induced seizures at 300 mg/kg, ip after 4 hrs. Format: functional, organism-based.
The test system of series [5] is Mus musculus. The experiment in a line: Anticonvulsant activity in ip dosed Kunming mouse assessed as minimum dose required to protect maximal electroshock-induced seizures in mouse measured after 0.5 hrs. It is filed as functional. To be noted: read-out: MED.
The species named for series [6] is Mus musculus. The experiment in a line: Neurotoxicity in Kunming mouse assessed as motor impairment by measuring reduction in time spent on rotarod after 0.5 hrs by rotarod test. It is filed as toxicity, organism-based. To be noted: in vivo.
In series [7] the test system is Mus musculus. The experiment in a line: Anticonvulsant activity in ip dosed Kunming mouse assessed as minimum dose required to protect maximal electroshock-induced seizures in mouse measured after 4 hrs. The settings on record: read-out: MED. It is filed as functional.
Series [8] concerns Mus musculus. The series can be described thus: Anticonvulsant activity in Kunming mouse assessed as protection against subcutaneously injected metrazol-induced seizures at 300 mg/kg, ip measured after 0.5 hrs. Format: functional, organism-based.
For series [9], the system named is Mus musculus. The series can be described thus: Anticonvulsant activity in Kunming mouse assessed as protection against maximal electroshock-induced seizures in mouse at 300 mg/kg, ip measured after 0.5 hrs. Format: functional, organism-based.
Series [10] relates to Mus musculus. The experiment in a line: Anticonvulsant activity in Kunming mouse assessed as protection against maximal electroshock-induced seizures in mouse at 300 mg/kg, ip measured after 4 hrs. Format: functional, organism-based.
The test system of series [11] is Mus musculus. The experiment in a line: Anticonvulsant activity in ip dosed Kunming mouse assessed as protection against subcutaneously injected metrazol-induced seizures after 0.5 hrs. Format: functional. The settings on record: read-out: MED.
Series [12] is described as follows: Neurotoxicity in ip dosed Kunming mouse assessed as motor impairment by measuring reduction in time spent on rotarod. The settings on record: in vivo. Format: toxicity, organism-based.
Series [13] is described as follows: Protection index, ratio of TD50 for neurotoxicity by motor impairment in Kunming mouse to ED50 for protection against maximal electroshock-induced seizures in ip dosed Kunming mouse. Format: toxicity, organism-based. To be noted: in vivo, read-out: Ratio TD50/ED50.
In series [14] the target is Sodium channel protein type 1 subunit alpha (Homo sapiens) (UniProt P35498). The experiment in a line: Inhibition of human Nav1.1 expressed in CHO-K1 cells assessed as use-dependent block at 10 uM at holding potential of -120 mV incubated for 30 mins prior to testing measured every 20 seconds by whole-cell patch clamp method. It is filed as cell-based.
Another series has as its target Nav1.1 (Homo sapiens, UniProt P35498). The series can be described thus: Inhibition of human Nav1.1 expressed in CHO-K1 cells assessed as state-dependent block at 10 uM at holding potential of -120 mV incubated for 30 mins prior to testing measured every 20 seconds by whole-cell patch clamp method. The settings on record: CHO-K1 cells expressing human Nav1.1. Format: cell-based. On the technique in general: Patch clamp records ionic current or voltage across a cell membrane.

For orientation: ED50 means the dose that gives a 50% effect, or the effect in half of the subjects. For orientation: TD50 means the 50% point of the dose-response relation for the toxic effect studied. The term inhibition denotes the percentage by which the read-out fell short of the control.

Active and inactive are the calls of the source. The rule behind the calls is not given here.

Regarding `CCC1(c2ccccc2)C(=O)NC(=O)NC1=O` [PHENOBARBITAL], in the series with Mus musculus [1], the 50% effective dose (ED50) is 21.8 mg/kg. Further, the Time with Mus musculus [2] turned out to be 1 h.
Regarding `CC(C)(C)c1ccc(CN2CC/C(=C\c3ccc4c(c3)OCO4)C2=O)cc1`, the MLD in the series filed under Mus musculus [3] and in the series filed under Mus musculus [6] was 300 mg/kg each time. In addition, the outcome in the series with Mus musculus [4] and in the series with Mus musculus [8] was inactive. The minimal effective dose in the series on Mus musculus [5] and in the series on Mus musculus [7] was 100 mg/kg each time.
On to `O=C1/C(=C/c2ccc3c(c2)OCO3)CCN1Cc1cccc(F)c1`, for which the MLD in the series listed under Mus musculus [3] and in the series listed under Mus musculus [6] was 300 mg/kg throughout. For the same compound, the result in the series with Mus musculus [4], in the series with Mus musculus [8] and in the series on Mus musculus [9] was inactive. In addition, the minimal effective dose in the series on Mus musculus [7] turned out to be 30 mg/kg.
Turning to `O=C1/C(=C/c2ccc3c(c2)OCO3)CCN1Cc1ccc(F)cc1`, the MLD in the series listed under Mus musculus [3] and in the series filed under Mus musculus [6] was 300 mg/kg throughout. Further, the result in the series on Mus musculus [4], with Mus musculus [10] and in the series with Mus musculus [8] was inactive. The minimal effective dose in the series on Mus musculus [5] amounted to 30 mg/kg.
Take `O=C1NC(=O)C(c2ccccc2)(c2ccccc2)N1` [PHENYTOIN]: the MLD in the series filed under Mus musculus [3] and in the series listed under Mus musculus [6] was 100 mg/kg throughout. Also, in the series on Mus musculus [2], the Time turned out to be 2 h. Moreover, the outcome in the series with Mus musculus [4] and in the series with Mus musculus [8] was inactive. The minimal effective dose in the series on Mus musculus [5] and in the series with Mus musculus [7] was 30 mg/kg throughout.
For `O=C1/C(=C/c2ccc3c(c2)OCO3)CCN1Cc1ccccc1Cl`, the minimal effective dose in the series with Mus musculus [11] is 100 mg/kg. Also, the MLD in the series listed under Mus musculus [3] and in the series filed under Mus musculus [6] was 300 mg/kg each time. The result with Mus musculus [4], with Mus musculus [10] and in the series with Mus musculus [9] was inactive.
For the compound `Cc1ccc(CN2CC/C(=C\c3ccc4c(c3)OCO4)C2=O)cc1`, the MLD in the series listed under Mus musculus [3] and in the series listed under Mus musculus [6] was 300 mg/kg in each case. The ED50 with Mus musculus [1] worked out at 6.3 mg/kg. Moreover, in [12], the TD50 is 167 mg/kg. Moreover, in the series with Mus musculus [2], the Time was 1 h. The result with Mus musculus [4] and in the series with Mus musculus [8] was inactive. In addition, the minimal effective dose in the series with Mus musculus [5] and in the series on Mus musculus [7] was 30 mg/kg throughout. In addition, the selectivity ratio in series [13] was 26.5.
Consider `O=C1/C(=C/c2ccc3c(c2)OCO3)CCN1Cc1ccccc1F`, for which the MLD in the series filed under Mus musculus [3] and in the series filed under Mus musculus [6] was 300 mg/kg throughout. In the series with Mus musculus [1], the median effective dose (ED50) is 5.6 mg/kg. For the same compound, the TD50 in series [12] came to 238 mg/kg. Besides, the Time in the series with Mus musculus [2] amounted to 1 h. Besides, the outcome in the series with Mus musculus [4] and in the series on Mus musculus [8] was inactive. Besides, the minimal effective dose in the series on Mus musculus [5] and with Mus musculus [7] was 30 mg/kg in each case. For the same compound, in [13], the selectivity ratio came to 42.6.
For the compound `Cc1ccccc1CN1CC/C(=C\c2ccc3c(c2)OCO3)C1=O`, the values for the minimal effective dose with Mus musculus [11] and in the series with Mus musculus [7] were 100 mg/kg and 30 mg/kg, respectively. Moreover, the MLD in the series filed under Mus musculus [3] and in the series listed under Mus musculus [6] was 300 mg/kg throughout. The outcome in the series on Mus musculus [4] and in the series on Mus musculus [9] was inactive.
For the compound `O=C1/C(=C/c2ccc3c(c2)OCO3)CCN1Cc1cccc(C(F)(F)F)c1`, the MLD in the series filed under Mus musculus [3] and in the series filed under Mus musculus [6] was 300 mg/kg each time. Further, the ED50 in the series with Mus musculus [1] came out at 4.3 mg/kg. The TD50 in series [12] worked out at 161 mg/kg. Moreover, the Time with Mus musculus [2] came to 1 h. The result in the series with Mus musculus [4] and with Mus musculus [8] was inactive. For the same compound, the inhibition in series [14] is 99.9%. In addition, the minimal effective dose in the series with Mus musculus [5] and in the series with Mus musculus [7] was 30 mg/kg in each case. Further, the inhibition at 0.5 h, 10 µM at Nav1.1 turned out to be 19.5%. Also, the selectivity ratio in series [13] turned out to be 37.4.
Turning to `O=C1/C(=C/c2ccc3c(c2)OCO3)CCN1Cc1c(F)cccc1F`, the MLD in the series filed under Mus musculus [3] and in the series filed under Mus musculus [6] was 300 mg/kg in each case. For the same compound, the result in the series with Mus musculus [4] and in the series with Mus musculus [8] was inactive. Further, the minimal effective dose in the series on Mus musculus [5] and in the series with Mus musculus [7] was 100 mg/kg throughout.
Turning to `O=C1NCC/C1=C\c1ccc2c(c1)OCO2`, the MLD in the series filed under Mus musculus [3] and in the series listed under Mus musculus [6] was 300 mg/kg in each case. Besides, the ED50 in the series with Mus musculus [1] came to 17.3 mg/kg. Further, the TD50 in series [12] was 179 mg/kg. In the series on Mus musculus [2], the Time amounted to 1 h. For the same compound, the result in the series with Mus musculus [4] and in the series with Mus musculus [8] was inactive. For the same compound, the figures for the minimal effective dose with Mus musculus [5] and in the series with Mus musculus [7] were 30 mg/kg and 100 mg/kg, respectively. The selectivity ratio in series [13] worked out at 10.4.
